Measured values taken from the supplement of paper PMC11061612.

Experiments:
Test in all cases: combination Emax (second highest fraction inhibited in the dose matrix, 72 h); higher = more inhibition; extreme values may be limits of the assay
[1] = test system: A704 (Kidney Carcinoma)
How it was run: (§1)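 Bliss excess equals the observed combination effect minus the expected value EA + EB − EA·EB, where EA and EB are the effects of each agent alone. Combination Emax is the second-highest inhibition within the matrix. Inhibition was scaled from CellTiter-Glo 2.0 luminescence, with 0 set by vehicle wells and 1 by blank wells, after 72 hours of two-drug dosing of cells plated in 1536-well plates.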

[2] = test system: EW-18 (Ewing's Sarcoma)
How it was run: as §1

[3] = test system: NCI-N87 (Gastric Carcinoma)
How it was run: as §1

[4] = test system: EW-3 (Ewing's Sarcoma)
How it was run: as §1

[5] = test system: HC-1 (Other Blood Carcinomas)
How it was run: as §1

[6] = test system: TGBC11TKB (Gastric Carcinoma)
How it was run: as §1

[7] = test system: SNU-C1 (Colorectal Carcinoma)
How it was run: as §1

[8] = test system: H-EMC-SS (Chondrosarcoma)
How it was run: as §1

[9] = test system: NB7 (Neuroblastoma)
How it was run: as §1

[10] = test system: KLE (Endometrial Carcinoma)
How it was run: as §1

[11] = test system: HSC-2 (Oral Cavity Carcinoma)
How it was run: as §1

[12] = test system: NCI-H1573 (Lung Adenocarcinoma)
How it was run: as §1

[13] = test system: MFE-319 (Endometrial Carcinoma)
How it was run: as §1

[14] = test system: EBC-1 (Squamous Cell Lung Carcinoma)
How it was run: as §1

[15] = test system: HuP-T3 (Pancreatic Carcinoma)
How it was run: as §1

[16] = test system: U-87-MG (Glioblastoma)
How it was run: as §1

[17] = test system: BT-20 (Breast Carcinoma)
How it was run: as §1

[18] = test system: RPMI-7951 (Melanoma)
How it was run: as §1

[19] = test system: IMR-5 (Neuroblastoma)
How it was run: as §1

[20] = test system: EW-13 (Ewing's Sarcoma)
How it was run: as §1

Row | Structure (SMILES) | combination Emax [1] | combination Emax [2] | combination Emax [3] | combination Emax [4] | combination Emax [5] | combination Emax [6] | combination Emax [7] | combination Emax [8] | combination Emax [9] | combination Emax [10] | combination Emax [11] | combination Emax [12] | combination Emax [13] | combination Emax [14] | combination Emax [15] | combination Emax [16] | combination Emax [17] | combination Emax [18] | combination Emax [19] | combination Emax [20]
1 | CN(C)CCCOc1ccc(-c2ccc3ncc4c(c3c2)n(C2CCOCC2)c(=O)n4C)cn1 [AZD0156] + O=C(c1cc(Cc2n[nH]c(=O)c3ccccc23)ccc1F)N1CCN(C(=O)C2CC2)CC1 [Olaparib] (first compound max 3 µM, partner max 3 µM) | 0.247 | 0.61 | 0.327 | 0.708 | 0.527 | 0.131 | 0.226 | 0.258 | 0.297 | 0.334 | 0.386 | 0.18 | 0.193 | 0.267 | 0.223 | 0.297 | 0.157 | 0.264 | 0.544 | 
2 | C=CCn1c(=O)c2cnc(Nc3ccc(N4CCN(C)CC4)cc3)nc2n1-c1cccc(C(C)(C)O)n1 [AZD1775] + C1CN(CCC1(C(=O)N[C@@H](CCO)C2=CC=C(C=C2)Cl)N)C3=NC=NC4=C3C=CN4 [Capivasertib] (first compound max 3 µM, partner max 3 µM) | 0.438 | 0.859 | 0.689 | 0.518 | 0.982 | 0.939 | 0.568 | 0.464 | 0.748 | 0.619 | 0.757 | 0.604 | 0.858 | 0.7 | 0.655 | 0.467 | 0.69 | 0.856 | 1 | 
3 | CN(CCO)CC[C@H](CSc1ccccc1)Nc1ccc(S(=O)(=O)NC(=O)c2ccc(N3CCC([C@@H](O)c4ccccc4-c4ccc(Cl)cc4)CC3)cc2)cc1S(=O)(=O)C(F)(F)F [AZD4320] + CN(C)CCCOc1ccc(-c2ccc3ncc4c(c3c2)n(C2CCOCC2)c(=O)n4C)cn1 [AZD0156] (first compound max 1 µM, 7x7, partner max 1 µM) | 0.496 | 0.91 | 0.477 | 0.95 | 0.424 | 0.258 | 0.439 | 0.46 | 0.108 | 0.266 | 0.269 | 0.2 | 0.288 | 0.944 |  | 0.165 | 0.411 | 0.333 | 0.608 | 0.636
4 | Cc1c2c(nn1C)CSCc1cc(n(C)n1)CSc1cc(c3ccccc3c1)OCCCc1c(C(=O)O)n(C)c3c-2c(Cl)ccc13 [AZD5991] + C[C@@H]1COCCN1C2=NC(=NC(=C2)C3(CC3)[S@](=N)(=O)C)C4=C5C=CNC5=NC=C4 [AZD6738] (first compound max 1 µM, 7x7, partner max 10 µM) | 0.487 | 0.928 | 0.688 | 0.892 | 0.926 | 0.889 | 0.333 | 0.511 | 0.918 | 0.483 | 0.765 | 0.516 | 0.932 | 0.491 | 0.666 | 0.494 |  | 0.98 | 1 | 0.805
5 | Cc1cc2ncnn2cc1Nc1ncc2c(n1)n(C1CCOCC1)c(=O)n2C [AZD7648] + O=C(c1cc(Cc2n[nH]c(=O)c3ccccc23)ccc1F)N1CCN(C(=O)C2CC2)CC1 [Olaparib] (first compound max 10 µM, 7x7, partner max 10 µM) | 0.226 | 0.369 | 0.301 | 0.657 | 0.521 | 0.269 | 0.158 | 0.321 | 0.219 | 0.419 | 0.228 | 0.0771 | 0.118 | 0.202 | 0.12 |  | 0.313 | 0.303 | 0.475 | 0.564
6 | COc1cccc2c1C(=O)c1c(O)c3c(c(O)c1C2=O)C[C@@](O)(C(=O)CO)C[C@@H]3O[C@H]1C[C@H](N)[C@H](O)[C@H](C)O1 [Doxorubicin] + Cc1cc2ncnn2cc1Nc1ncc2c(n1)n(C1CCOCC1)c(=O)n2C [AZD7648] (first compound max 1 µM, 7x7, partner max 10 µM) | 0.176 | 0.754 | 0.726 | 0.788 | 0.975 | 0.203 | 0.407 | 0.957 | 0.826 | 0.6 | 0.89 | 0.255 | 0.552 | 0.496 | 0.606 |  | 0.769 | 0.957 | 1 | 0.745
7 | COc1cccc(OCCCN)c1-c1cc(Nc2cnc(C#N)cn2)n[nH]1 [Prexasertib] + C=CCn1c(=O)c2cnc(Nc3ccc(N4CCN(C)CC4)cc3)nc2n1-c1cccc(C(C)(C)O)n1 [AZD1775] (first compound max 1 µM, partner max 1 µM) | 0.517 | 0.723 | 0.797 | 0.732 | 1 | 0.991 | 0.847 | 0.554 | 0.938 | 0.674 | 0.882 | 0.713 | 0.807 | 0.666 | 0.679 |  | 0.839 | 0.991 | 1 | 0.611
8 | COc1cccc(OCCCN)c1-c1cc(Nc2cnc(C#N)cn2)n[nH]1 [Prexasertib] + CN(C)CCCOc1ccc(-c2ccc3ncc4c(c3c2)n(C2CCOCC2)c(=O)n4C)cn1 [AZD0156] (first compound max 1 µM, 7x7, partner max 1 µM) | 0.485 | 0.761 | 0.706 | 0.683 | 1 | 0.963 | 0.751 | 0.493 | 0.858 | 0.471 | 0.776 | 0.652 | 0.815 | 0.545 | 0.7 |  | 0.626 | 0.953 | 0.963 | 0.452
9 | COc1cccc(OCCCN)c1-c1cc(Nc2cnc(C#N)cn2)n[nH]1 [Prexasertib] + C[C@@H]1COCCN1C2=NC(=NC(=C2)C3(CC3)[S@](=N)(=O)C)C4=C5C=CNC5=NC=C4 [AZD6738] (first compound max 1 µM, 7x7, partner max 10 µM) | 0.504 | 0.745 | 0.718 | 0.819 | 1 | 0.977 | 0.73 | 0.383 | 0.808 | 0.437 | 0.741 | 0.669 | 0.826 | 0.626 | 0.663 |  | 0.599 | 0.957 | 1 | 0.632
10 | COc1cccc(OCCCN)c1-c1cc(Nc2cnc(C#N)cn2)n[nH]1 [Prexasertib] + Cc1cc2ncnn2cc1Nc1ncc2c(n1)n(C1CCOCC1)c(=O)n2C [AZD7648] (first compound max 1 µM, 7x7, partner max 10 µM) | 0.504 | 0.742 | 0.776 | 0.736 | 1 | 0.96 | 0.759 | 0.458 | 0.842 | 0.471 | 0.778 | 0.668 | 0.865 | 0.588 | 0.716 |  | 0.646 | 0.971 | 0.98 | 0.512
11 | COc1cccc(OCCCN)c1-c1cc(Nc2cnc(C#N)cn2)n[nH]1 [Prexasertib] + O=C(c1cc(Cc2n[nH]c(=O)c3ccccc23)ccc1F)N1CCN(C(=O)C2CC2)CC1 [Olaparib] (first compound max 1 µM, 7x7, partner max 10 µM) | 0.421 | 0.764 | 0.668 | 0.815 | 1 | 0.952 | 0.663 | 0.31 | 0.749 | 0.431 | 0.782 | 0.608 | 0.811 | 0.603 | 0.695 |  | 0.799 | 0.974 | 0.976 | 0.698
12 | COc1cc2c(cc1OCCCCCOc1cc3c(cc1OC)C(=O)N1C=C(C)C[C@H]1C=N3)N=C[C@@H]1CC(C)=CN1C2=O [SG3199] + O=C(c1cc(Cc2n[nH]c(=O)c3ccccc23)ccc1F)N1CCN(C(=O)C2CC2)CC1 [Olaparib] (first compound max 0.001 µM, 7x7, partner max 10 µM) | 0.202 | 0.0839 | 0.125 | 0.634 | 0.498 | 0.3 | 0.0546 | 0.0837 | 0.166 | 0.184 | 0.116 | 0.0928 | 0.12 | 0.183 | 0.112 |  | 0.154 | 0.203 | 0.543 | 0.584
13 | CCc1c2c(nc3ccc(O)cc13)-c1cc3c(c(=O)n1C2)COC(=O)[C@]3(O)CC [SN-38] + CN(C)CCCOc1ccc(-c2ccc3ncc4c(c3c2)n(C2CCOCC2)c(=O)n4C)cn1 [AZD0156] (first compound max 0.3 µM, 7x7, partner max 1 µM) | 0.504 | 0.633 | 0.697 | 0.838 | 1 | 0.772 | 0.419 | 0.643 | 0.913 | 0.453 | 0.965 | 0.228 | 0.243 | 0.863 | 0.704 |  | 0.81 | 0.933 | 0.993 | 0.734
